Experimental data reported in patent US9034921B2, “Diphenylmethane derivatives as SGLT2 inhibitors” (GREEN CROSS CORPORATION, priority 2011, dated 2015).
Where a name gives a salt, the structure may show the parent alone.

These molecules were tested against human SGLT2 (Homo sapiens (Human), UniProt P31639) (assay: Inhibitory effects on human SGLT2 activities (14C-AMG uptake, sodium-dependent glucose transport assay)). Details: CHO cells stably expressing hSGLT2, 37° C., 2 h, single determinations.
Format: cell-based
How it was run: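 CHO cells stably expressing hSGLT2 were preincubated 10 min at 37 °C in choline (Na+-free) buffer, then exposed 2 h at 37 °C to compound in Na+ uptake buffer with 8 μM 14C-AMG and 1 mM unlabeled AMG. Radioactivity was scintillation counted; IC50 came from nonlinear regression.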

Chain of human SGLT2 (P31639 whole entry): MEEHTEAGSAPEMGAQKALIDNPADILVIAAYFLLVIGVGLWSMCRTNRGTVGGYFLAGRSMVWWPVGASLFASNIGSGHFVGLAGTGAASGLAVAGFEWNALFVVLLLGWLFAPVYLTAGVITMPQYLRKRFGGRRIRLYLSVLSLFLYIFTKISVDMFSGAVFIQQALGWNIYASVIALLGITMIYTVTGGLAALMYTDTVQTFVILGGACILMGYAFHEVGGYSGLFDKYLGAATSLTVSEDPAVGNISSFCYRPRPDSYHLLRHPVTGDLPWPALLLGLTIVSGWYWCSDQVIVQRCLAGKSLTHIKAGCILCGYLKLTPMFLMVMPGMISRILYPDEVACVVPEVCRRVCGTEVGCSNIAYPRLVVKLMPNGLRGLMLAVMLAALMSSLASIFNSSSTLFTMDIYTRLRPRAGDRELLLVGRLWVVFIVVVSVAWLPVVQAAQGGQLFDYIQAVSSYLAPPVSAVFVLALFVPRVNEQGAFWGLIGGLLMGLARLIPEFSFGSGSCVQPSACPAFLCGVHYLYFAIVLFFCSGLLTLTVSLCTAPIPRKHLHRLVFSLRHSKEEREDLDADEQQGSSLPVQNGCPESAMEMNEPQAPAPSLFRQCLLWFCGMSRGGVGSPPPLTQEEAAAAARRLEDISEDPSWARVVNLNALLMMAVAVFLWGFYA

| Structure (SMILES) | IC50 [nM] |
| --- | --- |
| CNCc1ccc(Cc2cc([C@@H]3O[C@H](CO)[C@@H](O)[C@H](O)[C@H]3O)c3c(c2Cl)OCC3)cc1 [Example E183, (2S,3R,4R,5S,6R)-2-(7-Chloro-6-(4-((methylamino)methyl)benzyl)-2,3-dihydrobenzofuran-4-yl)-6-(hydroxymethyl)tetrahydro-2H-pyran-3,4,5-triol trifluoro acetic acid salt] | 122 |
| CN(C)Cc1ccc(Cc2cc([C@@H]3O[C@H](CO)[C@@H](O)[C@H](O)[C@H]3O)c3c(c2Cl)OCC3)cc1 [Example E184, (2S,3R,4R,5S,6R)-2-(7-Chloro-6-(4-((dimethylamino)methyl)benzyl)-2,3-dihydrobenzofuran-4-yl)-6-(hydroxymethyl)tetrahydro-2H-pyran-3,4,5-triol trifluoro acetic acid salt] | 162 |
| OC[C@H]1O[C@@H](c2cc(Cc3ccc(CN4CC4)cc3)c(Cl)c3c2CCO3)[C@H](O)[C@@H](O)[C@@H]1O [Example E185, (2S,3R,4R,5S,6R)-2-(6-(4-(Aziridin-1-ylmethyl)benzyl)-7-chloro-2,3-dihydrobenzofuran-4-yl)-6-(hydroxymethyl)tetrahydro-2H-pyran-3,4,5-triol trifluoro acetic acid salt] | 164 |
| N#Cc1ccc(Cc2cc([C@@H]3O[C@H](CO)[C@@H](O)[C@H](O)[C@H]3O)c3c(c2Cl)OCC3)cc1 [Example E186, 4-((7-Chloro-4-((2S,3R,4R,5S,6R)-3,4,5-trihydroxy-6-(hydroxymethyl)tetrahydro-2H-pyran-2-yl)-2,3-dihydrobenzofuran-6-yl)methyl)benzonitrile] | 6.06 |
| COc1ccc(Cc2cc([C@@H]3O[C@H](CO)[C@@H](O)[C@H](O)[C@H]3O)c3c(c2Cl)C(=O)CO3)cc1 [Example E195, 4-Chloro-5-(4-methoxybenzyl)-7-((2S,3R,4R,5S,6R)-3,4,5-trihydroxy-6-(hydroxymethyl)tetrahydro-2H-pyran-2-yl)benzofuran-3(2H)-one] | 35.1 |
| COc1ccc(Cc2cc([C@@H]3O[C@H](CO)[C@@H](O)[C@H](O)[C@H]3O)c3c(c2Cl)C(O)CO3)cc1 (stereo partly drawn) [Example E196, (2S,3R,4R,5S,6R)-2-(4-Chloro-3-hydroxy-5-(4-methoxybenzyl)-2,3-dihydrobenzofuran-7-yl)-6-(hydroxymethyl)tetrahydro-2H-pyran-3,4,5-triol] | 3.56 |
| CN(C)c1ccc(Cc2cc([C@@H]3O[C@H](CO)[C@@H](O)[C@H](O)[C@H]3O)c3c(c2Cl)CCO3)cc1 [Example E197, (2S,3R,4R,5S,6R)-2-(4-Chloro-5-(4-(dimethylamino)benzyl)-2,3-dihydrobenzofuran-7-yl)-6-(hydroxymethyl)tetrahydro-2H-pyran-3,4,5-triol] | 3.22 |
| OC[C@H]1O[C@@H](c2cc(Cc3ccc(OCCOC4CC4)cc3)c(Cl)c3c2CCO3)[C@H](O)[C@@H](O)[C@@H]1O [Example E198, (2S,3R,4R,5S,6R)-2-(7-Chloro-6-(4-(2-cyclopropoxyethoxy)benzyl)-2,3-dihydrobenzofuran-4-yl)-6-(hydroxymethyl)tetrahydro-2H-pyran-3,4,5-triol] | 2.02 |
| COc1ccc(Cc2cc([C@@H]3O[C@H](CO)[C@@H](O)[C@H](O)[C@H]3O)c3oc(C)c(OC)c3c2Cl)cc1 [Example E201, (2S,3R,4R,5S,6R)-2-(4-Chloro-3-methoxy-5-(4-methoxybenzyl)-2-methylbenzofuran-7-yl)-6-(hydroxymethyl)tetrahydro-2H-pyran-3,4,5-triol] | 49.4 |
| COc1ccc(Cc2cc([C@@H]3O[C@H](CO)[C@@H](O)[C@H](O)[C@H]3O)c3occ(OC)c3c2Cl)cc1 [Example E202, (2S,3R,4R,5S,6R)-2-(4-Chloro-3-methoxy-5-(4-methoxybenzyl)benzofuran-7-yl)-6-(hydroxymethyl)tetrahydro-2H-pyran-3,4,5-triol] | 42.3 |
| OC[C@H]1O[C@@H](c2cc(Cc3ccc(OC4COC4)cc3)c(Cl)c3c2CCO3)[C@H](O)[C@@H](O)[C@@H]1O [Example E204, (2S,3R,4R,5S,6R)-2-(7-Chloro-6-(4-(oxetan-3-yloxy)benzyl)-2,3-dihydrobenzofuran-4-yl)-6-(hydroxymethyl)tetrahydro-2H-pyran-3,4,5-triol] | 5.05 |
| COc1ccc(Cc2cc([C@@H]3O[C@H](CO)[C@@H](O)[C@H](O)[C@H]3O)c3c(c2Cl)OCC3)s1 [Example E207, (2S,3R,4R,5S,6R)-2-(7-Chloro-6-((5-methoxythiophen-2-yl)methyl)-2,3-dihydrobenzofuran-4-yl)-6-(hydroxymethyl)tetrahydro-2H-pyran-3,4,5-triol] | 3.75 |
| CCN(CC)c1ccc(Cc2cc([C@@H]3O[C@H](CO)[C@@H](O)[C@H](O)[C@H]3O)ccc2Cl)cc1 [Example E210, (2S,3R,4R,5S,6R)-2-(4-Chloro-3-(4-(diethylamino)benzyl)phenyl)-6-(hydroxymethyl)tetrahydro-2H-pyran-3,4,5-triol] | 89.3 |
| OC[C@H]1O[C@@H](c2ccc(Cl)c(Cc3ccc(N4CCOCC4)cc3)c2)[C@H](O)[C@@H](O)[C@@H]1O [Example E211, (2S,3R,4R,5S,6R)-2-(4-Chloro-3-(4-morpholinobenzyl)phenyl)-6-(hydroxymethyl)tetrahydro-2H-pyran-3,4,5-triol] | 9.08 |
| CCOc1ccc(Cc2cc([C@@H]3O[C@H](CO)[C@@H](O)[C@H](O)[C@H]3O)c3c(c2Cl)N(C)CCO3)cc1 [Example E213, (2S,3R,4R,5S,6R)-2-(5-Chloro-6-(4-ethoxybenzyl)-4-methyl-3,4-dihydro-2H-benzo[b][1,4]oxazin-8-yl)-6-(hydroxymethyl)tetrahydro-2H-pyran-3,4,5-triol] | 6.12 |
| CCc1ccc(Cc2cc([C@@H]3O[C@H](CO)[C@@H](O)[C@H](O)[C@H]3O)c3c(c2Cl)NCCO3)cc1 [Example E214, (2S,3R,4R,5S,6R)-2-(5-Chloro-6-(4-ethylbenzyl)-3,4-dihydro-2H-benzo[b][1,4]oxazin-8-yl)-6-(hydroxymethyl)tetrahydro-2H-pyran-3,4,5-triol] | 3.17 |

The next molecules have a lower IC50 than those just listed; values first:

| IC50 [nM] | Structure (SMILES) |
| --- | --- |
| 1.96 | CC(C)Oc1ccc(Cc2cc([C@@H]3O[C@H](CO)[C@@H](O)[C@H](O)[C@H]3O)c3c(c2Cl)OCC3)cc1 [Example E205, (2S,3R,4R,5S,6R)-2-(7-Chloro-6-(4-isopropoxybenzyl)-2,3-dihydrobenzofuran-4-yl)-6-(hydroxymethyl)tetrahydro-2H-pyran-3,4,5-triol] |
| 1.88 | OC[C@H]1O[C@@H](c2cc(Cc3ccc(SC4CC4)cc3)c(Cl)c3c2CCO3)[C@H](O)[C@@H](O)[C@@H]1O [Example E206, (2S,3R,4R,5S,6R)-2-(7-Chloro-6-(4-(cyclopropylthio)benzyl)-2,3-dihydrobenzofuran-4-yl)-6-(hydroxymethyl)tetrahydro-2H-pyran-3,4,5-triol] |
| 1.87 | OCCCOc1ccc(Cc2cc([C@@H]3O[C@H](CO)[C@@H](O)[C@H](O)[C@H]3O)c3c(c2Cl)OCC3)cc1 [Example E193, (2S,3R,4R,5S,6R)-2-(7-Chloro-6-(4-(3-hydroxypropoxy)benzyl)-2,3-dihydrobenzofuran-4-yl)-6-(hydroxymethyl)tetrahydro-2H-pyran-3,4,5-triol] |
| 1.81 | N#CCc1ccc(Cc2cc([C@@H]3O[C@H](CO)[C@@H](O)[C@H](O)[C@H]3O)c3c(c2Cl)OCC3)cc1 [Example E203, 2-(4-((7-Chloro-4-((2S,3R,4R,5S,6R)-3,4,5-trihydroxy-6-(hydroxymethyl)tetrahydro-2H-pyran-2-yl)-2,3-dihydrobenzofuran-6-yl)methyl)phenyl)acetonitrile] |
| 1.63 | OC[C@H]1O[C@@H](c2cc(Cc3ccc(O)cc3)c(Cl)c3c2CCO3)[C@H](O)[C@@H](O)[C@@H]1O [Example E192, (2S,3R,4R,5S,6R)-2-(7-Chloro-6-(4-hydroxybenzyl)-2,3-dihydrobenzofuran-4-yl)-6-(hydroxymethyl)tetrahydro-2H-pyran-3,4,5-triol] |
| 1.57 | OC[C@H]1O[C@@H](c2cc(Cc3ccc4c(c3)OCCO4)c(Cl)c3c2OCC3)[C@H](O)[C@@H](O)[C@@H]1O [Example E191, (2S,3R,4R,5S,6R)-2-(4-Chloro-5-((2,3-dihydrobenzo[b][1,4]dioxin-6-yl)methyl)-2,3-dihydrobenzofuran-7-yl)-6-(hydroxymethyl)tetrahydro-2H-pyran-3,4,5-triol] |
| 1.22 | CCCOc1ccc(Cc2cc([C@@H]3O[C@H](CO)[C@@H](O)[C@H](O)[C@H]3O)c3c(c2Cl)OCC3)cc1 [Example E194, (2S,3R,4R,5S,6R)-2-(7-Chloro-6-(4-propoxybenzyl)-2,3-dihydrobenzofuran-4-yl)-6-(hydroxymethyl)tetrahydro-2H-pyran-3,4,5-triol] |
| 1.17 | CCCc1ccc(Cc2cc([C@@H]3O[C@H](CO)[C@@H](O)[C@H](O)[C@H]3O)c3c(c2Cl)OCC3)cc1 [Example E187, (2S,3R,4R,5S,6R)-2-(7-Chloro-6-(4-propylbenzyl)-2,3-dihydrobenzofuran-4-yl)-6-(hydroxymethyl)tetrahydro-2H-pyran-3,4,5-triol] |
| 1.11 | CN(C)c1ccc(Cc2cc([C@@H]3O[C@H](CO)[C@@H](O)[C@H](O)[C@H]3O)c3c(c2Cl)OCC3)cc1 [Example E190, (2S,3R,4R,5S,6R)-2-(7-Chloro-6-(4-(dimethylamino)benzyl)-2,3-dihydrobenzofuran-4-yl)-6-(hydroxymethyl)tetrahydro-2H-pyran-3,4,5-triol] |
| 1.08 | OC[C@H]1O[C@@H](c2cc(Cc3ccc(OC(F)(F)F)cc3)c(Cl)c3c2CCO3)[C@H](O)[C@@H](O)[C@@H]1O [Example E200, (2S,3R,4R,5S,6R)-2-(7-Chloro-6-(4-(trifluoromethoxy)benzyl)-2,3-dihydrobenzofuran-4-yl)-6-(hydroxymethyl)tetrahydro-2H-pyran-3,4,5-triol] |
| 0.891 | CCc1ccc(Cc2cc([C@@H]3O[C@H](CO)[C@@H](O)[C@H](O)[C@H]3O)c3c(c2Cl)C(C)CO3)cc1 (stereo partly drawn) [Example E215, (2S,3R,4R,5S,6R)-2-(4-Chloro-5-(4-ethylbenzyl)-3-methyl-2,3-dihydrobenzofuran-7-yl)-6-(hydroxymethyl)tetrahydro-2H-pyran-3,4,5-triol] |
